The conditions of series [1]: for solubility, bis(diphenylphosphino) series: acetonitrile or glacial acetic acid (GAA).
The nature of series [2]: Vapor-liquid-equilibrium (VLE) test: iodide measured in the condensed vapor phase (suppression of HI volatilization). The series is classed as physicochemical.
A short description of series [3]: pKb (basicity) of Group 15 oxides.
A short description of series [4]: FTIR P═O stretching frequency in acetonitrile as a gauge of basicity. The note with it: lower frequency = higher basicity. It counts as physicochemical. The method, then:
FTIR analyses were carried out on a Nicolet 6700 FTIR spectrometer equipped with a 3 bounce zinc selenide (ZnSe) attenuated total reflectance (ATR) crystal assembly. 0.1 mL aliquots of solution were removed from samples via micro-syringe. The solution was then placed on the crystal and an FTIR spectrum was obtained.

Where [5] appears, read: additive 0.05 molar, 0.1M HI, 1.3M H2O (2 wt %), GAA, approximately 140° C.
Where [6] appears, read: additive 0.1 molar, 0.1M HI, 1.3M H2O (2 wt %), GAA, approximately 140° C.

A word on the pKb: it is the negative decadic logarithm of the Kb, by convention in mol/L. Low readings indicate a large Kb, high ones a small Kb.

Consider `c1ccc(P(CCCCCCP(c2ccccc2)c2ccccc2)c2ccccc2)cc1`, for which the “solubility, bis(diphenylphosphino) series” value in series [1] is listed as “insoluble”.
On to `O=[As](c1ccccc1)(c1ccccc1)c1ccccc1` [Ph3AsO, triphenyl arsine oxide], for which the “HI (ppm in vapor)” value in series [2] (Table 5, additive 0.25 molar, 1:1 molar ratio of additive to HI) is listed as 1,132 ppm. The “effectiveness in suppressing volatilization of HI relative to the CMPO” value in series [2] (equivalent molarity, Table 5 conditions) is reported as “about 7 times”. The “solubility in GAA upon addition of HI” value in series [1] (HI added) is “soluble”. In series [1] (without added HI), the “solubility in GAA” value was “soluble”. In series [3], this compound registered a pKb of 4.15.
Turning to `O=P(CCCP(=O)(c1ccccc1)c1ccccc1)(c1ccccc1)c1ccccc1` [Bis-DPPPrO], the “P═O, cm^−1” value in series [4] is on record as 1,180.0 cm^−1.
Turning to `O=P(CCCCCP(=O)(c1ccccc1)c1ccccc1)(c1ccccc1)c1ccccc1` [Bis-DPPPeO2, bis(diphenylphosphino)pentane dioxide], the “HI (ppm in vapor)” value in series [2] (setting [5]) is 5,392 ppm; in series [2] (setting [6]), 683 ppm. For the same compound, in series [4], the “P═O, cm^−1” value is listed as 1,178.2 cm^−1.
With `O=P(CP(=O)(C1CCCCC1)C1CCCCC1)(C1CCCCC1)C1CCCCC1` [Bis-DiCyPMeO2], the “P═O, cm^−1” value in series [4] was 1,160.1 cm^−1.
Same read-out and setting: the same measure for `O=P(c1ccccc1)(c1ccccc1)c1ccccc1` [TPPO, triphenylphosphine oxide, reference compound]: 1,191.6 cm^−1.
In the case of `c1ccc(P(CCCCP(c2ccccc2)c2ccccc2)c2ccccc2)cc1`, in series [1], the “solubility, bis(diphenylphosphino) series” value is “insoluble”.
As to `O=P(CP(=O)(c1ccccc1)c1ccccc1)(c1ccccc1)c1ccccc1` [Bis-DPPMeO2, bis(diphenylphosphino)methane dioxide], the entries for the “HI (ppm in vapor)” value in series [2] (setting [5]) and in series [2] (setting [6]) were 7,889 ppm and 876 ppm, respectively. In series [4], the “P═O, cm^−1” value is recorded as 1,197.7 cm^−1.
On the same counts, the results for `O=P(CCCP(=O)(c1ccccc1)c1ccccc1)(c1ccccc1)c1ccccc1` [Bis-DPPPrO2, bis(diphenylphosphino)propane dioxide] are 6,291 ppm, 421 ppm and 1,180.8 cm^−1.
